pIC50: −log10 of the molar value. Like-named read-outs stand apart in the source and are kept apart here. Where a SMILES comes first, the peptide text is derived from it. Where no end group is shown, it is not given here. [ ]: non-standard residue; d: D form. Abu = CC[C@H](N)C(=O)O

Data on nine molecules can be found in patent publication US20040121946A9, “Inducing cellular immune responses to her2/neu using peptide and nucleic acid compositions” (priority 2002, published 2004).

For test [1], the target named is HLA-A*0101 (Homo sapiens, UniProt P04439, A114D/A174V/A182V/D101N/D185E/E176A/E190D/L180R/Q94H/R68K/S129P/T187R/V100A/V91M/W191G). Format: binding. As to conditions: Table XXV, HLA-A1 motif-bearing peptides.
Test [2] deals with HLA-A*0206 (Homo sapiens, UniProt P04439, D140Y/D185E/D98H/E176V/E277Q/F33Y/G131W/G231S/I119V/I121R/I166T/I218V/L300P/L318F/N151K/N90K/P208A/P217A/Q86G/Q94H/R138H/R169H/T345S). The format is binding. As to conditions: Table XXII, A2 supermotif peptides and analogs.
Test [3] has as its system .221A2.1 cell line, peptide-loaded target. In words: Primary in vitro CTL induction, peptide-specific recognition (51Cr release / in situ IFNγ ELISA). Format: cell-based, human. As to conditions: normal donors, peptide-pulsed targets. How it is done: The colon adenocarcinoma cell lines SW403 and HT-29 were obtained from the American Type Culture Collection (ATCC) (Rockville, Md.). The cell lines that were obtained from ATCC were maintained under the culture conditions recommended by the supplier. […] The colon cancer cells were treated with 100U/ml IFNγ (Genzyme) for 48 hours at 37° C. before use as targets in the ^51Cr release and in situ IFNγ assays.
The monocytes were purified by plating 10×10^6 PBMC/well in a 6-well plate. After 2 hours at 37° C., the non-adherent cells were removed by gently shaking the plates and aspirating the supernatants. The wells were washed a total of three times with 3 ml RPMI to remove most of the non-adherent and loosely adherent cells. Three ml of complete medium containing 50 ng/ml of GM-CSF and 1,000 U/ml of IL-4 were then added to each well. DC were used for CTL induction cultures following 7 days of culture.
Induction of CTL with DC and Peptide: CD8+ T-cells were isolated by positive selection with Dynal immunomagnetic beads (Dynabeads® M-450) and the detacha-bead® reagent. Typically about 200-250×10^6 PBMC were processed to obtain 24×10^6 CD8^+ T-cells (enough for a 48-well plate culture). Briefly, the PBMCs were thawed in RPMI with 30 μg/ml DNAse, washed once with PBS containing 1% human AB serum and resuspended in PBS/1% AB serum at a concentration of 20×10^6cells/ml. The magnetic beads were washed 3 times with PBS/AB serum, added to the cells (140 μl beads/20×10^6 cells) and incubated for 1 hour at 4° C. with continuous mixing. The beads and cells were washed 4× with PBS/AB serum to remove the nonadherent cells and resuspended at 100×10^6 cells/ml (based on the original cell number) in PBS/AB serum containing 100 μl/ml detacha-bead® reagent and 30 μg/ml DNAse. The mixture is incubated for 1 hour at room temperature with continuous mixing. The beads were washed again with PBS/AB/DNAse to collect the CD8+ T-cells. The DC were collected and centrifuged at 1300 rpm for 5-7 minutes, washed once with PBS with 1% BSA, counted and pulsed with 40 μg/ml of peptide at a cell concentration of 1-2×10^6/ml in the presence of 3 μg/ml β2-microglobulin for 4 hours at 20° C. The DC were then irradiated (4,200 rads), washed 1 time with medium and counted again.
Setting up induction cultures: 0.25 ml cytokine-generated DC (@1×10^5 cells/ml) were co-cultured with 0.25 ml of CD8+ T-cells (@2×10^6 cell/ml) in each well of a 48-well plate in the presence of 10 ng/ml of IL-7. rHuman IL10 was added the next day at a final concentration of 10 ng/ml and rhuman IL2 was added 48 hours later at 10 IU/ml.
Restimulation of the induction cultures with peptide-pulsed adherent cells: Seven and fourteen days after the primary induction the cells were restimulated with peptide-pulsed adherent cells. The PBMCS were thawed and washed twice with RPMI and DNAse. The cells were resuspended at 5×10^6 cells/ml and irradiated at ˜4200 rads. The PBMCs were plated at 2×10^6 in 0.5 ml complete medium per well and incubated for 2 hours at 37° C. The plates were washed twice with RPMI by tapping the plate gently to remove the nonadherent cells and the adherent cells pulsed with 10 μg/ml of peptide in the presence of 3 μg/ml β2 microglobulin in 0.25 ml RPMI/5%AB per well for 2 hours at 37° C. Peptide solution from each well was aspirated and the wells were washed once with RPMI. Most of the media was aspirated from the induction cultures (CD8+ cells) and brought to 0.5 ml with fresh media. […]
(An ELISA detects its analyte on a solid surface through an enzyme-linked reagent.)

Test [4] has as its target HLA-A*0201 (Homo sapiens, UniProt P04439, D140Y/D185E/D98H/E176V/E277Q/G131W/G231S/I119V/I121R/I166T/I218V/L300P/L318F/N151K/N90K/P208A/P217A/Q86G/Q94H/R138H/R169H/T345S). Format: binding. As to conditions: Table XXII, A2 supermotif peptides and analogs.
In test [5] the test system is tumor targets that endogenously express HER2/neu (colon adenocarcinoma cell lines SW403 and HT-29). Briefly: Primary in vitro CTL induction, recognition of wild-type peptide and endogenous tumor targets (51Cr release / in situ IFNγ ELISA). The format is cell-based, human. As to conditions: in vitro, expanded positive cultures.
Test [6] concerns the target HLA-A*0203 (Homo sapiens, UniProt P04439, A173T/D140Y/D185E/D98H/E277Q/G131W/G231S/I119V/I121R/I166T/I218V/L180W/L300P/L318F/N151K/N90K/P208A/P217A/Q86G/Q94H/R138H/R169H/T345S). Format: binding. As to conditions: Table XXII, A2 supermotif peptides and analogs.
In test [7] the target is HLA-A*2402 (Homo sapiens, UniProt P04439, D101N/D140Y/D185E/E176V/E190D/F33S/G103R/G107R/I119L/I121M/I306V/K335N/L105A/L180Q/L300P/N151K/N90K/Q86E/Q94H/R106L/R138H/R89G/T104I/T345S/V100E/W191G/Y123F). The format is binding. As to conditions: HLA-A24 motif-bearing peptides, Table XXVI.
From the text: The corresponding peptide sequence are then synthesized and tested for binding to the appropriate allele-specific HLA molecule, HLA-A1 or HLA-24.

Consider `CC(C)[C@H](NC(=O)[C@H](CS)NC(=O)[C@H](CCC(N)=O)NC(=O)[C@H](CC(=O)O)NC(=O)[C@H](C)NC(=O)[C@@H](N)CCC(=O)O)C(=O)N[C@@H](C)C(=O)N[C@@H](CS)C(=O)N[C@@H](C)C(=O)N[C@@H](Cc1c[nH]cn1)C(=O)N[C@@H](Cc1ccc(O)cc1)C(=O)O` [Her2/neu.580], for which the pIC50 in test [1] is 6.60.
Take `CC(C)[C@H](NC(=O)[C@H](CS)NC(=O)[C@@H](NC(=O)[C@H](C)N)[C@@H](C)O)C(=O)N[C@H](C(=O)N[C@@H](C)C(=O)N[C@@H](CS)C(=O)N1CCC[C@H]1C(=O)N[C@@H](Cc1ccc(O)cc1)C(=O)O)[C@@H](C)O` [Her2/neu.293.T2]: the pIC50 in test [1] (read-out: A*[…]) is 7.31.
With `CC[C@H](NC(=O)[C@H](CCCCN)NC(=O)[C@@H](NC(=O)[C@H](CCSC)NC(=O)[C@@H](NC(=O)[C@H](CC(C)C)NC(=O)[C@@H](N)Cc1ccc(O)cc1)[C@@H](C)CC)C(C)C)C(=O)N[C@@H](Cc1c[nH]c2ccccc12)C(=O)N[C@@H](CCSC)C(=O)N[C@H](C(=O)O)C(C)C` [Her2/neu.952L2B7V10] (H-YLIMVK[Abu]WMV-OH), the pIC50 is 7.96 in test [2], 8.14 in test [4] and 7.11 in test [6]. In addition, in test [3], the “induction of peptide-specific CTL” value was “induced peptide-specific CTLs in at least 2 donors”. In addition, in test [5], the “recognition of wild-type peptide and of tumor targets endogenously expressing HER2/neu by induced CTL” value is reported as “no wild-type peptide or endogenous recognition was observed”.
With H-VLLGVVFGV-OH [Her2/neu.665L2V9], the “induction of peptide-specific CTL” value in test [3] is on record as “strong peptide-specific CTL response was observed”. In test [5], the “recognition of wild-type peptide and of tumor targets endogenously expressing HER2/neu by induced CTL” value is reported as “Peptide-specific CTL activity was maintained in some of the cultures, but no corresponding endogenous recognition was observed”.
In turn, RWGLLLAL [RWGLLLAL] gave a pIC50 in test [7] of 6.32.
Consider `CC(C)C[C@H](NC(=O)[C@H](CO)NC(=O)CNC(=O)[C@H](Cc1ccccc1)NC(=O)[C@H](CC(C)C)NC(=O)[C@@H](N)CCCCN)C(=O)N[C@@H](C)C(=O)N[C@@H](Cc1ccccc1)C(=O)N[C@H](C(=O)O)C(C)C` [Her2/neu.369L2V9], for which the “induction of peptide-specific CTL” value in test [3] is “induced peptide-specific CTLs”. Moreover, the “recognition of wild-type peptide and of tumor targets endogenously expressing HER2/neu by induced CTL” value in test [5] is “also recognized the target tumor cells”.
Regarding TYLPTNASL, the pIC50 in test [7] is 6.50.
Consider `CC(C)C[C@H](NC(=O)[C@H](CO)NC(=O)CNC(=O)[C@H](Cc1ccccc1)NC(=O)[C@@H](NC(=O)[C@@H](N)CCCCN)C(C)C)C(=O)N[C@@H](C)C(=O)N[C@@H](Cc1ccccc1)C(=O)N[C@H](C(=O)O)C(C)C` [Position V2V9], for which the “induction of peptide-specific CTL” value in test [3] is recorded as “induced peptide-specific CTLs”. Further, in test [5], the “recognition of wild-type peptide and of tumor targets endogenously expressing HER2/neu by induced CTL” value is on record as “also recognized the target tumor cells”.
Consider `CC[C@H](NC(=O)[C@H](CC(C)C)NC(=O)[C@H](C)N)C(=O)N[C@@H](CCCNC(=N)N)C(=O)N[C@@H](Cc1c[nH]c2ccccc12)C(=O)NCC(=O)N[C@@H](CC(C)C)C(=O)N[C@@H](CC(C)C)C(=O)N[C@H](C(=O)O)C(C)C` [Her2neu.5B3V9] (H-AL[Abu]RWGLLV-OH), for which the “induction of peptide-specific CTL” value in test [3] was “induced peptide-specific CTLs in at least 2 donors”. The pIC50 in test [4] was 7.74. Also, in test [5], the “recognition of wild-type peptide and of tumor targets endogenously expressing HER2/neu by induced CTL” value is “no wild-type peptide or endogenous recognition was observed”.
